Here are results for four molecules from patent publication US20050070006A1 (priority 2001, published 2005).

Series [1] concerns strain 4S (frameshift mutation). Conditions: Bromocresol Red colour change.
Series [2] deals with strain 6S (frameshift mutation). Kind of series: Long-term mutation test (selection phase 16 hours), luminometric β-galactosidase reporter. As to conditions: selection 16 hours.
Series [3] has as its system strain 4S (frameshift mutation). The description is as above. Conditions: selection 16 hours.
For series [4] the following is noted: antibiotic activity; Olivia et al. 1992; cited from earlier work.

Converted amounts (≈) assume the structure as drawn. Read-outs that look alike come from different tables or passages of the source.

For the molecule `COc1ccc2nc3cc(Cl)ccc3c(NCCCNCCCl)c2c1.Cl.Cl` [ICR-191, 2-Methoxy-6-chloro-9-(3-(2-chloro-ethyl)aminopropylamino)acridine, dihydrochloride], the “% of positive wells” value in series [1] (0.03 μg/ml) amounted to 0%; in series [1] (0.06 μg/ml), 6.3%; in series [1] (0.12 μg/ml) it was 12.5%; in series [1] (0.25 μg/ml) it was 25%; in series [1] (0.5 μg/ml), 37.5%; in series [1] (1 μg/ml), 75%. In addition, the “Mutation induction (factor)” value in series [1] (0.03 μg/ml) was 0 factor; in series [1] (0.06 μg/ml) it was 2 factor; in series [1] (0.12 μg/ml) it was 4 factor; in series [1] (0.25 μg/ml) it was 8.1 factor; in series [1] (0.5 μg/ml), 12.1 factor; in series [1] (1 μg/ml), 24.2 factor. The “Mutation induction (factor)” value is recorded as 28 factor in series [2] (0.016 μg/ml); 57 factor in series [2] (0.031 μg/ml); 86 factor in series [2] (0.0625 μg/ml); 127 factor in series [2] (0.125 μg/ml); 162 factor in series [2] (0.25 μg/ml); 235 factor in series [2] (0.5 μg/ml). Further, the “Mutation induction (factor)” value in series [2] (1 μg/ml) is 264 factor. In addition, the “Relative luminescence units (rlu)” value in series [2] (0.016 μg/ml) came out at 151340 rlu; in series [2] (0.031 μg/ml) it was 307828 rlu; in series [2] (0.0625 μg/ml), 466003 rlu; in series [2] (0.125 μg/ml) it was 685471 rlu; in series [2] (0.25 μg/ml), 880208 rlu; in series [2] (0.5 μg/ml), 1274327 rlu. In addition, the “Relative luminescence units (rlu)” value in series [2] (1 μg/ml) is reported as 1432620 rlu.
For the molecule Nitrofluorene, the “Mutation induction (factor)” value in series [3] (0.031 μg/ml) is recorded as 39 factor; in series [3] (0.0625 μg/ml) it was 90 factor; in series [3] (0.125 μg/ml), 169 factor; in series [3] (0.25 μg/ml), 321 factor; in series [3] (0.5 μg/ml), 682 factor; in series [3] (1 μg/ml) it was 630 factor. Besides, the “Relative luminescence units (rlu)” value in series [3] (0.031 μg/ml) is on record as 210703 rlu; in series [3] (0.0625 μg/ml) it was 480532 rlu; in series [3] (0.125 μg/ml), 900022 rlu; in series [3] (0.25 μg/ml) it was 1713083 rlu; in series [3] (0.5 μg/ml), 3643737 rlu; in series [3] (1 μg/ml), 3360982 rlu.
For the molecule `CN(C)[C@@H]1C(=O)C(C(N)=O)=C(O)[C@@]2(O)C(=O)C3=C(O)c4c(O)cccc4[C@@](C)(O)[C@H]3C[C@@H]12` [tetracyclin], in series [4], the “MIC (minimum inhibition concentration) value” was 0.5 µg/mL (≈ 1.13 µM).
Nitropyrene: the “Mutation induction (factor)” value is 0.8 factor in series [3] (0.031 μg/ml); 19.8 factor in series [3] (0.0625 μg/ml); 41 factor in series [3] (0.125 μg/ml); 65 factor in series [3] (0.25 μg/ml); 177 factor in series [3] (0.5 μg/ml); 103 factor in series [3] (1 μg/ml). Further, the “Relative luminescence units (rlu)” value in series [3] (0.031 μg/ml) was determined as 4125 rlu; in series [3] (0.0625 μg/ml) it was 105949 rlu; in series [3] (0.125 μg/ml), 219636 rlu; in series [3] (0.25 μg/ml), 348410 rlu; in series [3] (0.5 μg/ml), 950853 rlu; in series [3] (1 μg/ml), 552390 rlu.
